Assays:
[1] = Gamma-camera observation of activity distribution over time in rabbit after injection into the ear vein; assay type: in vivo; settings: for livermax (time of maximal liver activity after the injection) / livermax/2 (half-life of the activity in the liver, outside of the gallbladder): rabbit, 0.5 mCi, ear vein, Tc-99m labelled
Method: (1) 0.5 mCi of the labelled diagnostic agent ia administered to a rabbit by injection into the ear vein, and the distribution of the activity is observed during the passage of time by means of a gamma-camera connected with a data processing system. The progress of the activity in defined organs is thus observed. The following parameters are determined:
1. livermax =time of maximal liver activity after the injection
2. livermax/2 =half-life of the activity in the liver (outside of the gallbladder).
1.8 g (2,4,5-trimethylacetanilido)-iminodiacetic acid is dissolved in 20 ml of 0.5 N sodium hydroxide solution and 36 mg of SnCl2.2H2 O (dissolved in 6 ml of 0.1 N hydrochloric acid) are added. The batch is stirred for 5 minutes, the pH is adjusted to 6 by means of hydrochloric acid, the batch is brought to 60 ml and divided into 1 ml portions. 10 mCi of Tc-99m pertechnetate in 4 ml of physiological saline solution are added to such a portion. […] All operations were carried out under a protective N2 gas atmosphere.

[2] = Distribution of radioactivity in the organs of rats after injection into the thigh vein; assay type: in vivo, rat; settings: for radioactivity in intestines / radioactivity in kidneys / radioactivity in liver: rat, 30 μCi, thigh vein
Method: 2. 30 μCi each of the labelled diagnostic agent are administered to groups of 12 rats each by injection into the thigh vein. Subsequently, 3 animals each are killed after 5, 10, 20 and 30 minutes, and the distribution of radioactivity in the organs is determined.
After stirring for 5 minutes, the pH is adjusted to 6 by means of hydrochloric acid, the batch is brought to 233 ml, divided into 1 ml portions in beaded rim vials, and frozen with liquid nitrogen. Subsequently, the product is lyophilized, the vials are filled with nitrogen and closed. After a storage time of 60 days, 0.3 mCi to Tc-99m pertechnetate in 10 ml of physiological saline solution is injected into the closed vials. After a reaction time of 20 minutes, 0.5 ml each of the diagnostic agent so obtained is administered intravenously to rats (typical test results are indicated in Table 2).

[3] = test system: mice; experiment: Toxicity (dosis tolerata maxima, LD50) in mice; assay type: in vivo
[4] = test system: rats; experiment: Toxicity (dosis tolerata maxima, LD50) in rats; assay type: in vivo
[5] = compared to the hitherto known products

Compound | livermax (time of maximal liver activity after the injection) [1] [min] | livermax/2 (half-life of the activity in the liver, outside of the gallbladder) [1] [min] | radioactivity in intestines ([2]; 5 minutes) [%] | radioactivity in kidneys ([2]; 5 minutes) [%] | radioactivity in liver ([2]; 5 minutes) [%] | radioactivity in intestines ([2]; 10 minutes) [%] | radioactivity in kidneys ([2]; 10 minutes) [%] | radioactivity in liver ([2]; 10 minutes) [%] | radioactivity in intestines ([2]; 20 minutes) [%] | radioactivity in kidneys ([2]; 20 minutes) [%] | radioactivity in liver ([2]; 20 minutes) [%] | radioactivity in intestines ([2]; 30 minutes) [%] | radioactivity in kidneys ([2]; 30 minutes) [%] | radioactivity in liver ([2]; 30 minutes) [%] | LD50 [3] | dosis tolerata maxima [3] | LD50 [4] | dosis tolerata maxima [4] | passage through the liver [1, 5] | activity concentration in the kidney [2, 5]
Cc1cc(C)c(NC(=O)CN(CC(=O)O)CC(=O)O)c(C)c1 [2,4,6-trimethyl-, (2,4,6-trimethylacetanilido)iminodiacetate] | 4.2 | 10.0 | 57.0 | 3.6 | 23.5 | 66.0 | 3.8 | 12.1 | 79.2 | 3.8 | 2.9 | 81.0 | 3.3 | 1.6 | – | – | – | – | – | –
CC(C)c1cccc(C(C)C)c1NC(=O)CN(CC(=O)O)CC(=O)O [2,6-diisopropyl-, (2,6-diisopropylacetanilido)-iminodiacetate] | 4.6 | 15.3 | 60.9 | 4.4 | 10.0 | 65.3 | 4.4 | 7.0 | 71.9 | 4.4 | 4.4 | 72.2 | 3.8 | 4.4 | – | – | – | – | – | –
Cc1cc(C)c(NC(=O)CN(CC(=O)O)CC(=O)O)cc1C [TMIDA, (2,4,5-trimethylacetanilido)-iminodiacetate] | 2.6 | 7.7 | 56.8 | 3.3 | 19.1 | 68.8 | 3.1 | 9.6 | 81.1 | 2.5 | 2.4 | 82.0 | 2.1 | 1.2 | 246 mg per kg of test animal | 189 mg/kg of body weight | 255 mg per kg of test animal | 189 mg/kg of body weight | more rapid passage through the liver | decreased activity concentration in the kidney
^99m Tc-(2,6-diethylacetanilido)-iminodiacetate [EHIDA] | 6.8 | 15.7 | 71.2 | 4.3 | 6.9 | 79.9 | 4.2 | 3.4 | 81.7 | 3.6 | 1.6 | 81.8 | 3.4 | 1.5 | – | – | – | – | – | –
^99m Tc-(2,6-dimethylacetanilido)-iminodiacetate [HIDA] | 5.7 | 8.2 | 43.2 | 7.4 | 21.7 | 65.9 | 7.4 | 9.6 | 80.8 | 5.8 | 2.2 | 79.7 | 4.9 | 1.0 | – | – | – | – | – | –
